Laboratory results: patent US10765114B2, “4-amino-6-(pyridyl and 2-substitutedphenyl)-picolinates and 6-amino-2-(pyridyl and 2-substitutedphenyl)-pyrimidine-4-carboxylates and their use as herbicides” (Dow AgroSciences LLC, priority 2013, dated 2020)
Like-named read-outs stand apart in the source and are kept apart here.

Assays:
[1] = tested on: Key Broadleaf Weed and Crop Species; experiment: Post-Emergent Test II (Table 5); type: in vivo; conditions: post-emergence, 336 h; for pest or weed control at 70 g/ha: application rate 70 (kg ai/ha; footnote: g ai/ha); for pest or weed control at 140 g/ha: application rate 140 (kg ai/ha; footnote: g ai/ha)
How it was run: (§1)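 Visual injury ratings (0 = no injury, 100 = complete kill) taken 14 days after treatment, relative to untreated controls. Compounds, in an acetone/DMSO aqueous carrier with crop oil and surfactant, were applied by track sprayer at 187 L/ha, in a twofold dilution series from the top rate, to plants at the first to second true-leaf stage.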

[2] = tested on: Key Grass and Sedge Weeds as well as Grass Crops; experiment: Post-Emergent Test II (Table 6); type: in vivo; conditions: post-emergence, 336 h, 14 days after application; for pest or weed control at 70 g/ha: 70 g ai/ha; for pest or weed control at 140 g/ha: 140 g ai/ha
How it was run: as §1

[3] = Abutilon theophrasti, ABUTH: velvetleaf (Abutilon theophrasti), read-out: Visual Growth Reduction (%) 14 Days After Application ABUTH
[4] = Amaranthus retroflexus, AMARE: redroot pigweed (Amaranthus retroflexus), read-out: Visual Growth Reduction (%) 14 Days After Application AMARE
[5] = Brassica napus, BRSSS: oilseed rape, canola (Brassica napus), read-out: Visual Growth Reduction (%) 14 Days After Application BRSSS
[6] = Chenopodium album, CHEAL: lambsquarters (Chenopodium album), read-out: Visual Growth Reduction (%) 14 Days After Application CHEAL
[7] = Euphorbia heterophylla, EPHHL: wild poinsettia (Euphorbia heterophylla), read-out: Visual Growth Reduction (%) 14 Days After Application EPHHL
[8] = Helianthus annuus, HELAN: sunflower (Helianthus annuus), read-out: Visual Growth Reduction (%) 14 Days After Application HELAN
[9] = Viola tricolor, VIOTR: wild pansy (Viola tricolor), read-out: Visual Growth Reduction (%) 14 Days After Application VIOTR
[10] = CYPSS, read-out: Visual Growth Reduction (%) 14 Days After Application CYPSS
[11] = DIGSA: crabgrass (Digitaria sanguinalis), read-out: Visual Growth Reduction (%) 14 Days After Application DIGSA
[12] = ECHSS, read-out: Visual Growth Reduction (%) 14 Days After Application ECHSS
[13] = ORYSS (crop), read-out: Visual Growth Reduction (%) 14 Days After Application ORYSS
[14] = SETFA: giant foxtail (Setaria faberi), read-out: Visual Growth Reduction (%) 14 Days After Application SETFA
[15] = SORVU: grain sorghum (Sorghum vulgare), read-out: Visual Growth Reduction (%) 14 Days After Application SORVU
[16] = TRZSS (crop), read-out: Visual Growth Reduction (%) 14 Days After Application TRZSS
[17] = ZEAMX: maize, corn (Zea mays), read-out: Visual Growth Reduction (%) 14 Days After Application ZEAMX

Compound | pest or weed control at 70 g/ha [1, 3] | pest or weed control at 140 g/ha [1, 3] | pest or weed control at 70 g/ha [1, 5] | pest or weed control at 140 g/ha [1, 5] | pest or weed control at 70 g/ha [1, 6] | pest or weed control at 140 g/ha [1, 6] | pest or weed control at 70 g/ha [1, 7] | pest or weed control at 140 g/ha [1, 7] | pest or weed control at 70 g/ha [1, 8] | pest or weed control at 140 g/ha [1, 8] | pest or weed control at 70 g/ha [1, 9] | pest or weed control at 140 g/ha [1, 9] | pest or weed control at 70 g/ha [2, 10] | pest or weed control at 140 g/ha [2, 10] | pest or weed control at 70 g/ha [2, 11] | pest or weed control at 140 g/ha [2, 11] | pest or weed control at 70 g/ha [2, 12] | pest or weed control at 140 g/ha [2, 12] | pest or weed control at 70 g/ha [2, 13] | pest or weed control at 140 g/ha [2, 13] | also measured
Nc1c(F)c(-c2ccc(C(F)(F)F)nc2)nc(C(=O)O)c1Cl [Compound 46, 4-amino-5-chloro-3-fluoro-6′-(trifluoromethyl)-[2,3′-bipyridine]-6-carboxylic acid] | 85 to 94% | 95 to 100% | 95 to 100% | 95 to 100% | 95 to 100% | 95 to 100% | 95 to 100% | 95 to 100% | 95 to 100% | 95 to 100% | 85 to 94% | 95 to 100% | 95 to 100% | 95 to 100% | 95 to 100% | 95 to 100% | 95 to 100% | 95 to 100% | 75 to 84% | 95 to 100% | pest or weed control at 70 g/ha [1, 4]: 95 to 100%; pest or weed control at 140 g/ha [1, 4]: 95 to 100%; pest or weed control at 70 g/ha [2, 14]: 95 to 100%; pest or weed control at 140 g/ha [2, 14]: 95 to 100%; pest or weed control at 70 g/ha [2, 15]: 85 to 94%; pest or weed control at 140 g/ha [2, 15]: 85 to 94%; pest or weed control at 70 g/ha [2, 16]: 75 to 84%; pest or weed control at 140 g/ha [2, 16]: 85 to 94%; pest or weed control at 70 g/ha [2, 17]: 85 to 94%; pest or weed control at 140 g/ha [2, 17]: 85 to 94%; melting point: 164 °C
Nc1c(F)c(-c2ccc(OC(F)F)nc2)nc(C(=O)O)c1Cl [Compound 66] | 75 to 84% | 85 to 94% | 0 to 29% | 0 to 29% | 85 to 94% | 95 to 100% | 95 to 100% | 95 to 100% | 85 to 94% | 85 to 94% | 60 to 74% | 60 to 74% | 45 to 59% | 45 to 59% | 60 to 74% | 60 to 74% | 75 to 84% | 75 to 84% | 0 to 29% | 0 to 29% | pest or weed control at 70 g/ha [1, 4]: 0 to 29%; pest or weed control at 140 g/ha [1, 4]: 0 to 29%; pest or weed control at 70 g/ha [2, 14]: 60 to 74%; pest or weed control at 140 g/ha [2, 14]: 60 to 74%; pest or weed control at 70 g/ha [2, 15]: 30 to 44%; pest or weed control at 140 g/ha [2, 15]: 75 to 84%; pest or weed control at 70 g/ha [2, 16]: 45 to 59%; pest or weed control at 140 g/ha [2, 16]: 60 to 74%; pest or weed control at 70 g/ha [2, 17]: 60 to 74%; pest or weed control at 140 g/ha [2, 17]: 60 to 74%; melting point: 134 to 136 °C
COC(=O)c1nc(-c2ccc(C(F)(F)F)nc2F)nc(N)c1Cl [Compound 47] | 0 to 29% | 0 to 29% | 0 to 29% | 0 to 29% | 0 to 29% | 45 to 59% | 0 to 29% | 0 to 29% | 0 to 29% | 0 to 29% | 0 to 29% | 0 to 29% | 0 to 29% | 0 to 29% | 0 to 29% | 0 to 29% | 0 to 29% | 0 to 29% | 0 to 29% | 0 to 29% | pest or weed control at 70 g/ha [1, 4]: 0 to 29%; pest or weed control at 140 g/ha [1, 4]: 0 to 29%; pest or weed control at 70 g/ha [2, 14]: 0 to 29%; pest or weed control at 140 g/ha [2, 14]: 0 to 29%; pest or weed control at 70 g/ha [2, 15]: 0 to 29%; pest or weed control at 140 g/ha [2, 15]: 0 to 29%; pest or weed control at 70 g/ha [2, 16]: 0 to 29%; pest or weed control at 140 g/ha [2, 16]: 0 to 29%; pest or weed control at 70 g/ha [2, 17]: 0 to 29%; pest or weed control at 140 g/ha [2, 17]: 0 to 29%; melting point: 150 to 153 °C
COC(=O)c1nc(-c2ccc(C(F)(F)F)nc2F)cc(N)c1Cl [Compound 74] | 85 to 94% | 95 to 100% | 30 to 44% | 45 to 59% | 75 to 84% | 85 to 94% | 0 to 29% | 0 to 29% | 45 to 59% | 60 to 74% | 0 to 29% | 0 to 29% | 0 to 29% | 0 to 29% | 0 to 29% | 0 to 29% | 0 to 29% | 45 to 59% | 0 to 29% | 0 to 29% | pest or weed control at 70 g/ha [2, 14]: 0 to 29%; pest or weed control at 140 g/ha [2, 14]: 0 to 29%; pest or weed control at 70 g/ha [2, 15]: 0 to 29%; pest or weed control at 140 g/ha [2, 15]: 45 to 59%; pest or weed control at 70 g/ha [2, 16]: 0 to 29%; pest or weed control at 140 g/ha [2, 16]: 0 to 29%; pest or weed control at 70 g/ha [2, 17]: 0 to 29%; pest or weed control at 140 g/ha [2, 17]: 30 to 44%; melting point: 138 to 141 °C
